The values that follow are results of earlier work, collected in patent US12552830B2, “Steroidal compound derivatives as therapeutic agents” (priority 2020, dated 2026).

Entries after “also recorded” stand apart in the source; their conditions may differ.

Series [1] relates to human umbilical endothelial cell (HUVEC).
For series [2], the system named is HIV. As to conditions: latent CD4+T cells, in vitro.
For series [3], the system named is transactivator of transcription (Tat).

One may read the IC50 as the concentration that inhibits the measured activity by half. Consider cortistatin A, for which the IC50 in series [1] (HUVECs, read-out: IC50, selective anti-proliferative activity of HUVECs) is 1.8 nM. Further, in series [1] (over NHDF, KB3-1, K562 and Neuro2A cells), the “selectivity for HUVECs over other cell lines” value is recorded as 3000 fold.
On to `CN(C)[C@H]1C[C@@]23CC[C@@]4(O2)C(=CC[C@]2(C)C(c5ccc6ccncc6c5)=CCC24)C=C3[C@@H](O)[C@@H]1O` (stereo partly shown) [dCA, didehydro-cortistatin A], for which, in series [2], the “viral reactivation of HIV” value is “prevents viral reactivation of HIV in vitro; also recorded: prevents viral reactivation in latent CD4+T cells in vitro”. Further, the “inhibition of Tat” value in series [3] is “most potent inhibitor of transactivator of transcription (Tat)”.
